According to patent US4518711A, “Conformationally constrained cyclic enkephalin analogs with delta receptor specificity” (Gibson-Stephens Institute, priority 1983, dated 1985):
Read-outs that look alike come from different tables or passages of the source. Where a SMILES comes first, the peptide text is derived from it. Bridges are numbered along the chain shown (N, C = ends). [ ]: non-standard residue; d: D form. dPen = CC(C)(S)[C@@H](N)C(=O)O

Key:
[1] = target: T1, delta type opiate receptors (mouse vas deferens preparation) (Mus musculus, UniProt P32300); assay: Mouse vas deferens (MVD) assay, inhibition of electrically stimulated contractions; format: cell-based; details: for IC50 (GPI)/IC50 (MVD): delta receptor selectivity, GPI versus MVD
T1 construct: The mouse vas deferens was prepared following the method of Hughes et al; from tissue; host or cells: mouse vas deferens
Experimental: These assays tested the degree of electrically stimulated contractions in the MVD and GPI tissues.
The mouse vas deferens was prepared following the method of Hughes et al. One pair of vasa deferentia was used in each experiment.

[2] = target: T2, mu receptors (rat brain membrane preparations) (Rattus norvegicus, UniProt P33535); assay: Rat brain binding assay, displacement of [3H]naloxone
T2 construct: Whole brains with cerebellum removed were homogenized in 100 volumes of Tris-HCl buffer; from tissue; host or cells: rat whole brain (cerebellum removed) membrane homogenate

[3] = target: T3, delta receptors (rat brain membrane preparations) (Rattus norvegicus, UniProt P33533); assay: Rat brain binding assay, displacement of [3H][D-Ala2, D-Leu5]enkephalin
T3 construct: Whole brains with cerebellum removed were homogenized in 100 volumes of Tris-HCl buffer; from tissue; host or cells: rat whole brain (cerebellum removed) membrane homogenate
T3 sequence (P33533 whole entry): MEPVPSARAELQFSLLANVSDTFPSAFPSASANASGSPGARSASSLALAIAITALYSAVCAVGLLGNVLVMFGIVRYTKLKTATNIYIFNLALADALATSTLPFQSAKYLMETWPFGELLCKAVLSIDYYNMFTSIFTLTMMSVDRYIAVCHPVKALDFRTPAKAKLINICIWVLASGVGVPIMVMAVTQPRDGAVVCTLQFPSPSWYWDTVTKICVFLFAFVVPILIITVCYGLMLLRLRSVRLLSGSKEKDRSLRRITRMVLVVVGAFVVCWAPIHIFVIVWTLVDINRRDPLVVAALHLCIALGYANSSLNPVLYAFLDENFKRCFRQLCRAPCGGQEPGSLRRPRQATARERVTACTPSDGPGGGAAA

T1 sequence (P32300 whole entry): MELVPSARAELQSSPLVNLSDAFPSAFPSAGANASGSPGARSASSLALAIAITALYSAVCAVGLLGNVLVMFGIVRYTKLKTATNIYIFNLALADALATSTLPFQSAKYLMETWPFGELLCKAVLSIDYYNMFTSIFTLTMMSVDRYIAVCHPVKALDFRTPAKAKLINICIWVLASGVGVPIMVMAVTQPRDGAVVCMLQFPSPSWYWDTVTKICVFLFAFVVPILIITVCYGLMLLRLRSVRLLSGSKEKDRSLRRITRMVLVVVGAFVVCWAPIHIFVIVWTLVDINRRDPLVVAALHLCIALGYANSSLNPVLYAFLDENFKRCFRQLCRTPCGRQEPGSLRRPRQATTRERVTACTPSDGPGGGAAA
T2 sequence (P33535 whole entry): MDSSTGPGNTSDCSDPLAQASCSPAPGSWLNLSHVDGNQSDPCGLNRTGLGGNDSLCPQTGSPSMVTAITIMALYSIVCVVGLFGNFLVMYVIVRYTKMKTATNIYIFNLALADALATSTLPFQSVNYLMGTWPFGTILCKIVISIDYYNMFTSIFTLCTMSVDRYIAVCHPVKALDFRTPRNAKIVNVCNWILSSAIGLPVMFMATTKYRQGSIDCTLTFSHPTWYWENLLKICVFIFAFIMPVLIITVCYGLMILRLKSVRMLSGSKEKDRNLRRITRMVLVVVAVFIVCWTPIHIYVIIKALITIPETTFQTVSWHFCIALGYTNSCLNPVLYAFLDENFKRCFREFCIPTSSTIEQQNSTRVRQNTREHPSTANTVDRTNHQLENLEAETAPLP

SMILES | IC50 [1] [nM] | IC50 (GPI)/IC50 (MVD) [1] | IC50 [2] [nM] | IC50 [3] [nM] | IC50 (NAL)/IC50 (DADLE) ([3]; delta receptor selectivity in rat brain binding) | IC50 ([1]; electrically stimulated contractions, mouse vas deferens, read-out: IC50 (nM) MVD) [nM]
C[C@@H](O)[C@H](NC(=O)[C@@H]1CSSC(C)(C)[C@@H](NC(=O)[C@@H](N)Cc2ccc(O)cc2)C(=O)NCC(=O)N[C@@H](Cc2ccccc2)C(=O)N1)C(=O)O (H-Y[dPen]GFCT-OH; disulfide 2-5) | 0.6 | 380 | 146 | 5.2 | 28.2 | 
Oc1ccc2c3c1O[C@H]1[C@@H](O)C=C[C@H]4[C@@H](C2)NCC[C@@]341 [Normorphine] |  | 0.17 |  |  |  | 540
CSCC[C@H](NC(=O)[C@H](Cc1ccccc1)NC(=O)CNC(=O)[C@@H](C)NC(=O)[C@@H](N)Cc1ccc(O)cc1)C(N)=O [[D-Ala^2, Met^5]Enkephalinamide, [D-Ala^2, Met^5]Enkephalinamide] | 3.75 |  |  |  |  | 
CC(C)C[C@H](NC(=O)[C@H](Cc1ccccc1)NC(=O)CNC(=O)[C@@H](CO)NC(=O)[C@@H](N)Cc1ccc(O)cc1)C(=O)N[C@H](C(=O)O)[C@@H](C)O [[D-Ser^2, Leu^5, Thr^6]Enkephalin, [D-Ser^2, Leu^5, Thr^6]enkephalin] |  |  | 88 ± 6 | 5.73 |  | 
CC(C)C[C@H](NC(=O)[C@H](Cc1ccccc1)NC(=O)CNC(=O)[C@H](NC(=O)[C@@H](N)Cc1ccc(O)cc1)[C@H](C)O)C(=O)N[C@H](C(=O)O)[C@@H](C)O [[D-Thr^2, Leu^5, Thr^6]Enkephalin, [D-Thr^2, Leu^5, Thr^6]enkephalin] |  |  | 36.3 | 6.4 |  | 
